According to patent US11879021B2, “Cyclic peptides and uses thereof” (UNIVERSITÉ DE MONTRÉAL, priority 2016, dated 2024):

Columns and labels:
CD36 = biological target: T1, CD36 (Rattus norvegicus, UniProt Q07969); assay: Competition binding of photoactivatable [125I]-Tyr-Bpa-Ala-Hexarelin to CD36 in rat cardiac membranes; details: competition with [125I]-Tyr-Bpa-Ala-Hexarelin, rat heart membranes; read-out: IC50 (μM), binding affinity for CD36
T1 construct: from tissue; host or cells: Heart (cardiac membranes) of Sprague Dawley rats from Charles River
Experimental: Hearts from Sprague Dawley rats (300-325 g) from Charles River were cut into small pieces and homogenized with a Polytron® at low speed, 3×15 sec in buffer A (10 mM NaHCO3, 5 mM NaN3, 10 μM Pefabloc®, 0.1 μM Aprotinin, 1 μM Pepstatin A, 1 μM Leupeptin, pH 7.0) at a concentration of […] of tissue. The homogenate was first centrifuged at 8,700×g for 20 min in a Sorvall® centrifuge and the supernatant was collected on ice. The pellet was resuspended and re-homogenized with a Glass-Teflon® Potter by 5 strokes. This homogenate was recentrifuged at 8,700×g for 10 min and the resulting supernatant was combined with the first collected supernatant. The combined supernatant was centrifuged at 35,000×g for 20 min. The pellet fraction obtained was resuspended in Buffer B (20 mM Tris-maleate, 0.6M KCl, pH 6.8) in a volume corresponding to 20 mL/g of fresh tissue using a glass homogenizer with a Teflon pestle. The resulting suspension was centrifuged again at 35,000×g for 60 min. and the pellet fraction obtained was resuspended in Buffer C (10 mM Tris/HCl buffer pH 7.4) and thoroughly homogenized in a glass with a Teflon® pestle (20 ml/g of fresh tissue). This suspension was submitted to another centrifugation at 35,000×g for 60 min. The collected pellet was resuspended in 50 mM Tris/HCl buffer pH 7.4) containing 2 mM EGTA in a final volume corresponding to 1-2 mL/g of fresh tissue. The membrane preparation obtained was frozen at −80° C. Protein concentration was determined using the bicinchoninic acid (BCA) method, employing BSA as standard.
The reaction was started by adding 3 nmol of H2O2 for 5 min at room temperature. This step was repeated twice with a period of 5 min of incubation for each addition. The reaction was stopped by diluting the mixture with 1 mL of 0.1% TFA. The radioiodinated peptide was purified by HPLC on a reverse-phase Vydac® C18 column with a 60-min linear gradient from 20% to 50% of acetonitrile in 0.1% TFA. The eluted radiolabelled tracer was collected, aliquoted (50×10^6 cpm/fraction) and stored at −80° C.
Binding studies with MPE-298 were done with increasing concentrations from 0.01 to 5 μM of competition ligands. Nonspecific binding was defined as binding not displaced by 50 μM corresponding peptide. All peptide containing solutions were diluted in Buffer B. Buffer A and B were degassed under vacuum, and used in capped tubes in order to minimize lipid peroxidation. Before the incubation period, all tubes were put under a low flow of nitrogen. All material was kept on ice and the binding assay was performed in darkness. After an incubation period of 60 min at 22° C. (vortexing every 15 min), membranes were submitted to irradiation with UV lamps (365 nm) for 15 min at 4° C. After centrifugation at 12,000×g for 15 minutes, the pellets were resuspended in 40 μl of sample buffer (62 mM Tris-HCl, pH 6.8, 2% SDS, 10% glycerol, 15% 2-mercaptoethanol, and 0.05% bromophenol blue), and boiled for 5 min prior to being subjected to electrophoresis. Proteins (50 μg/40 μl) were separated on a 7.5% SDS-PAGE Bio-Rad® Mini-Protean electrophoresis system (150 V for 1 h). The gels resulting from SDS/PAGE were fixed, colored in Coomassie Brilliant Blue R-250, dried, exposed to a storage phosphor intensifying screen (Amersham Biosciences), and analysed using a Typhoon® PhosphorImager (GE Healthcare Life Sciences®). […] The curves were analysed by using software package (Graphpad® prism version 7.0).

[1] = system: R-FSL-1 (TLR2 agonist)-induced NO production in RAW macrophage cell line; assay: Nitric oxide (NO) production induced by TLR2 agonist R-FSL-1 in RAW macrophage cell line; type: cell-based, murine; details: RAW macrophages; for suppression of NO production compared with positive control MPE-001 at the same concentration / suppression of R-FSL-1-mediated NO production at 10^−7 M: 10^−7 M, FIG. 4F; for suppression of R-FSL-1-mediated NO production at 10^−7 M: further analyses; for R-FSL-1-mediated NO production, % of control: control = R-FSL-1 only, noticeable reduction without reaching significance (P<0.01)
Experimental: The murine RAW1 macrophage cell line was obtained from American Type Cell Collection (ATCC #TIB-71), seeded at 1.5×10^5 cells/well in Dulbecco's Modified Eagle's medium (DMEM) containing 100 U/mL of penicillin (Pen) and 100 μg/mL of streptomycin (Strep) on a 48-well plate (Costar® #3548), and incubated at 37° C. with 5% CO2. After 2 h, the cell culture medium of adhered cells was removed and replaced by DMEM-Pen/Strep medium containing 0.2% of bovine serum albumin (BSA), and supplemented with the cyclic peptides at a concentration of 10^−6 or 10^−7 M. MPE-001 (DBG178, His-D-Trp-Ala-AzaTyr-D-Phe-Lys-NH2) and [azaLys^6]-GHRP-6 (His-D-Trp-Ala-Trp-D-Phe-azaLys-NH2, negative control) at 10^−6 M were used as positive and negative controls, respectively. After 1 h pre-incubation, the cells were stimulated overnight using the TLR2 ligand fibroblast-stimulating lipopeptide (R-FSL-1) (Invivogen® #L7022) at a concentration of 300 ng/mL. Supernatants were then collected for nitrite production analysis by fluorescence using 2,3-diaminonaphthalene (DAN). Briefly, 25 μL of sample was incubated with 0.5 μg of DAN in a 100 μL final volume of phosphate buffer (50 mM, pH 7.5) at room temperature in the dark. After 15 min, the reaction was stopped with 20 μL of NaOH (2.8N) and the plate was read using a fluorescence plate reader (TECAN® Safire, λexc 365 nm and λem 430 nm).

[2] = system: R-FSL-1 (TLR2 agonist)-induced TNF-α and CCL-2 release in RAW macrophages; assay: R-FSL-1-induced TNF-α and CCL-2 release in RAW macrophages; type: cell-based, murine; details: 10^−7 M
Experimental: The murine RAW1 macrophage cell line was obtained from American Type Cell Collection (ATCC #TIB-71). RAW cells were seeded at 150,000 cells per well in a 48-well plate (Costar® #3548) and weaned overnight in medium (DMEM supplemented 1% penicillin/streptomycin) at 37° C. with 5% CO2. The next day, the medium was changed to DMEM-1% penicillin/streptomycin supplemented with 0.2% BSA. The cells were first pretreated with 300 μL of azapeptides DBG178 (MPE-133, reference standard), 25 (MPE-210), 26 (MPE-266), 28 (MPE-268), 32 (MPE-267), 33 (MPE-298), 38 (MPE-308), 35 (MPE-300), 39 (MPE-310) and azaLys6-GHRP-6 (as negative control) at 10^-7M for 30 min. Then, […] of the TLR2 agonist, R-FSL-1 (300 ng/ml final concentration, R-FSL-1, Invivogen® #L7022) was added for 4 h period of incubation at 37° C. with 5% CO2. At the end of the incubation period, media were collected and stored at −80° C. for TNF-α and CCL-2 assays using ELISA kits (EbioScience® #88-7391 and #88-7324). Results were analyzed by analysis of variance (ANOVA) with post hoc comparisons using Dunnett's test with a statistical software package (Graph Pad Prism® version 7.0). P<0.05 was considered statistically significant.

apoE−/− mice = assay: Murine atherosclerosis model (apoE−/− mice on atherogenic diet), aortic lesions; type: in vivo; details: 300 nmol/kg daily s.c. for 8 weeks
Experimental: Experiments were performed in male apoE−/− mice fed an atherogenic diet (D12108, cholate-free AIN-76A semi-purified diet, Research Diets Inc., New Brunswick, NJ) from 4 weeks of age. MPE-298 (300 nmol/kg), MPE-267 (300 nmol/kg) or vehicle (0.9% NaCl), were administered by daily by subcutaneous (s.c.) injections for 8 weeks, from 12 weeks of age, as shown schematically in FIG. 8A.

[3] = system: R-FSL-1 (TLR2 agonist)-induced TNF-α and CCL-2 release in RAW macrophages; assay: R-FSL-1-induced TNF-α and CCL-2 release in RAW macrophages; type: cell-based, murine; details: 10^−7 M; remark: listed apart in the source

T1 sequence (Q07969 whole entry): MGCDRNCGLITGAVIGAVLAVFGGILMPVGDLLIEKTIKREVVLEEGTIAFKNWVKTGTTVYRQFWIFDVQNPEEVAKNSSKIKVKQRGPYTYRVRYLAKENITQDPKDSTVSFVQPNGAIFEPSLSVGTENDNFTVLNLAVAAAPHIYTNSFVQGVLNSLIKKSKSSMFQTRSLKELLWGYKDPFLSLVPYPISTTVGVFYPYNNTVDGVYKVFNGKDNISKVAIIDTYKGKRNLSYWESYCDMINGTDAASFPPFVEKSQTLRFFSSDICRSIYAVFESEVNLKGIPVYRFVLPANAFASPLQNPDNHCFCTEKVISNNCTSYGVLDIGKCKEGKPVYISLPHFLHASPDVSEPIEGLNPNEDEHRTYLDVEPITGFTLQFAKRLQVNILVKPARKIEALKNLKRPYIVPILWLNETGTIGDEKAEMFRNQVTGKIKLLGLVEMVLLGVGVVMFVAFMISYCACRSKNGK

IC50 (CD36) | Compound | suppression of R-FSL-1-mediated NO production ([1]; at the concentration tested (10^−6 or 10^−7 M), FIGS. 4A to 4F) | effect on R-FSL-1-induced CCL-2 release [2] | effect on R-FSL-1-induced TNF-α release [2] | reduction of aortic lesions relative to 0.9% NaCl (vehicle) (apoE−/− mice) | suppression of NO production compared with positive control MPE-001 at the same concentration [1] | suppression of R-FSL-1-mediated NO production at 10^−7 M [1] | R-FSL-1-mediated NO production, % of control [1] | inhibitory effect on R-FSL-1-induced CCL-2 release compared with reference standard DBG178 (MPE-001) [3]
0.24 µM | C=CCN1CC#CCN(NC(=O)[C@H](C)N)C(=O)N[C@@H](C)C(=O)N[C@@H](Cc2c[nH]c3ccccc23)C(=O)N[C@H](Cc2ccccc2)C(=O)N[C@H](C(N)=O)CCCC1 [MPE-267] | significant suppression | significant inhibitory effect | significant inhibitory effect | 28% | – | – | – | –
0.67 µM | C=CCN1CC#CCN(NC(=O)[C@H](C)NC(C)=O)C(=O)N[C@H](Cc2c[nH]c3ccccc23)C(=O)N[C@@H](C)C(=O)N[C@@H](Cc2c[nH]c3ccccc23)C(=O)N[C@H](Cc2ccccc2)C(=O)N[C@H](C(N)=O)CCCC1 [MPE-308] | – | significant inhibitory effect | significant inhibitory effect | – | more important | significant suppression | about 80 % of control | –
0.89 µM | C=CCN1CC#CCN(NC(C)=O)C(=O)N[C@H](Cc2c[nH]c3ccccc23)C(=O)N[C@@H](C)C(=O)N[C@@H](Cc2c[nH]c3ccccc23)C(=O)N[C@H](Cc2ccccc2)C(=O)N[C@H](C(N)=O)CCCC1 [MPE-310] | – | significant inhibitory effect | significant inhibitory effect | – | more important | significant suppression | about 80 % of control | significantly higher
